According to article PMC11571207, “Stereorandomized Oncocins with Preserved Ribosome Binding and Antibacterial Activity” (Journal of Medicinal Chemistry, 2024):
≈ marks a conversion by molar mass, not a printed value. Read-outs that look alike come from different tables or passages of the source. Non-standard residues stand in square brackets, D forms with d. Residues, ends and D or L forms follow the SMILES beside them. No end group written: not given here.

What was measured:
[1] = system: P. aeruginosa PA14 4.13 (phoQ); settings: for MIC P. aeruginosa PA14 4.13 (phoQ), 12.5% MHB / MIC P. aeruginosa PA14 4.13 (phoQ), full MHB: polymyxin B resistant strain, 16–20 h at 37 °C; for MIC P. aeruginosa PA14 4.13 (phoQ), 12.5% MHB: 12.5% MHB pH 7.4; for MIC P. aeruginosa PA14 4.13 (phoQ), full MHB: full MHB pH 7.4; for MIC P. aeruginosa PA14 4.13: supplement CSV
E. coli BW25113 WT = settings: Table S1, 16-20 h at 37 °C; for MIC E. coli BW25113 WT, 12.5% MH: 12.5% Müller-Hinton medium pH 7.4; for MIC E. coli BW25113 WT, Full MH: full Müller-Hinton medium pH 7.4
Method: (§1) Minimum inhibitory concentration assay
(§2) Antimicrobial activity was assayed against P. aeruginosa PAO1, K. pneumoniae NCTC418, E. coli W3110, A. baumannii ATCC 19606, methicillin-resistant S. aureus COL (MRSA), and for selected peptides on P. aeruginosa PA14 and the polymyxin-B-resistant derivative PA14 2P4, as well as the clinical isolates ZEM-1A and ZEM9A, K. pneumoniae OXA-48, S. aureus Newman, Enterobacter cloacae and Burkholderia cenocepacia. The minimal inhibitory concentration (MIC) was determined by using broth microdilution method. A colo ny of bacteria was picked and grown in Luria-Bertani (LB) medium overnight at 37°C. For E. coli BW25113 sbmA::kan the medium was supplemented with 25 mg/L of kanamycin. The next day, the culture was then regrown in LB medium to log phase (OD600 = 0.6 to 0.8), which lasted approximately 4 h, and diluted to an OD600 of 0.022 in the desired medium. Stock solutions of 1 mg/mL of the samples were prepared in sterilized milliQ water and diluted to the beginning concentration of 64 μg/mL in 300 μL Mueller Hinton (MH)-medium. The diluted samples were added to first well of 96-well microtiter plate (TPP, untreated, Faust Laborbedarf, AG, Schaffhausen) and diluted serially by ½. Finally, 4 μL of the bacterial suspension was inoculated into the sample solutions (150 μL/well) with a final inoculation of about 5∙10^5 CFU/mL. The plates were then incubated at 37°C for 15-18h. For each assay, sterility (broth only) and growth control (broth with bacterial inoculum, without antibiotics) were checked with two columns in the plate. The next day, 15 μL of 3-(4,5-dimethylthiazol-2-yl)-2,5-diphenyltetrazolium bromide (MTT) was added to each well of the plate, such a way that MIC was defined as the lowest concentration of the peptide that inhibited visible growth of the tested […]
(§3) Table S1. Activity of stereorandomized and diastereomeric oncocins against E. coli BW25113 WT and BW25113 sbmA::kan mutant in full and 12.5% MH, at pH 7.4. […]
(§4) a) Minimum inhibitory concentration (MIC, μg/mL) was determined on E. coli BW25113 WT and […]

[2] = system: E. coli BW25113 sbmA::kan; settings: Table S1, sbmA::kan mutant, 16-20 h at 37 °C; for MIC E. coli BW25113 SbmA-, 12.5% MH: 12.5% Müller-Hinton medium pH 7.4; for MIC E. coli BW25113 SbmA-, Full MH: full Müller-Hinton medium pH 7.4
Method: as §1, §2, §3, §4

[3] = system: E. coli ribosome, U2506 of the 23S rRNA; experiment: Ribosome footprinting (CMCT modification of U2506); assay type: binding; settings: 1 μM peptide, 10.5 μM CMCT, purified E. coli ribosomes (5 pmol), 25 °C; primer extension, sequencing gel
Method: A 5 mL culture of E. coli MG1655 (WT-cells) was grown in LB overnight (220 rpm, 37 °C). One liter LB medium was inoculated, and bacteria were grown to OD = 0.6 (220 rpm. 37 °C); cells were centrifuged in centrifuge bottles, and the pellet was resuspended in ice-cold water and transferred in 50 mL falcon tubes. Falcon tubes were centrifuged, the supernatant was removed, the pellet was resuspended in 15 mL polysome buffer (TRIS/HCl pH 7.5 20 mM, NH4Cl 100 mM, MgCl2 10 mM, EDTA 0.5 mM, β-mercaptoethanol 60 mM), frozen dropwise in N2 (l), and stored at −80 °C. The cells were ground in CryoMil with the standard program (1 min precooling, 2 min grinding 5/s, 2 min cooling, 2 min grinding 5/s). The powder was transferred in 50 mL falcon tubes containing N2 (l) and stored at −80 °C. The lysates were thawed with a water bath (30 °C), put on ice, transferred to precooled Eppendorf tubes, and centrifuged (5000 g, 2 min, 4 °C). The clear lysate was transferred to new precooled tubes, centrifuged (14 000 g, 10 min, 4 °C), and the supernatant was transferred to new precooled tubes. 300 mL of clear lysate was loaded on a 10–50% sucrose gradient in CMCT buffer (K-borate buffer pH 8 80 mM, MgCl2 25 mM, NH4Cl 100 mM) and ultracentrifuged (3 h, 234 050 g, 4 °C). The fractions containing monosomes and polysomes were collected and ultracentrifuged overnight (16 h, 260 800 g, 4 °C). The supernatant was discarded, and the pellet was washed with ice-cold CMCT buffer. The ribosomes were resuspended in 100 μL CMCT buffer with a mini magnetic stirring bar and stored on ice. The concentration of ribosomes was measured in 1/200 dilution in water.
Ribosomes (5 pmol) were mixed with 8 μL of CMCT buffer, the compound of interest 1 μM, and water to a final volume of 20 μL in a precooled tube and incubated at 25 °C for 10 min. 20 μL of CMCT (10.5 μM) in water was added and incubated at 25 °C for 30 min. The reaction was stopped with 160 μL of EDTA (30 μM), and the samples were stored on ice.
160 μL portion of RNA resuspension buffer and 40 μL of 10% SDS were added, and the samples were vigorously resuspended. 400 μL of prewarmed acid phenol was added, and the samples were incubated on a thermomixer (5 min, 1200 rpm, 65 °C). The samples were put on ice for 5 min and centrifuged (5 min, 14 000 g, RT). The watery phase was transferred to a new precooled tube, 400 μL of phenol–chloroform–isoamyl alcohol (4 °C) was added, and the samples were mixed (5 min, 1200 rpm, RT). The samples were centrifuged again (5 min, 14 000g, RT), and the watery phase was transferred to another precooled tube. 34 μL of 3 M NaOAc pH 5.5, 0.8 μL of Glycoblue and 400 μL of isopropanol were added, and the samples were incubated for 3 h at −80 °C. The samples were then centrifuged (40 min, 21 000g, 4 °C), and the pellet was washed with ice-cold 70% EtOH. The residual liquid was removed, and the samples were dried (5 min, 37 °C). The samples were resuspended in 20 μL of water, the concentration was measured, and the samples were −80 °C.
Primers designed to probe the positions 2506 of the 23S rRNA (5-[sequence]-3′) were labeled with radioactive phosphate (γ^32 P-ATP). […] To prepare primers for one reaction, 1 μL of primer (0.3 μM), 0.4 μL of 5× PNK-buffer, 0.25 μL of water, 0.2 μL of γ^32 P-ATP, and 0.15 μL of T4 PNK were mixed and incubated at 37 °C.

K. pneumoniae NCTC418 = experiment: Time-killing kinetic assay, K. pneumoniae; assay type: cell-based, Klebsiella pneumoniae; settings: 8× MIC, full MHB pH 7.4, 0-6 h, n = 6
Method: (§5) Time-Killing Kinetic Assay
(§6) Single colonies of E. coli W3110 and K. pneumoniae NCTC418 were picked and grown overnight with shaking (180 rpm) in LB (Sigma-Aldrich, Buchs, Switzerland) medium 5 mL overnight at 37 °C. The overnight bacterial cultures were diluted to OD600 = 0.002 (2 × 10^6 CFU/mL) in fresh MHB medium. Stock solutions of AMPs in sterilized milliQ water were prepared in 1 mg/mL and were diluted to two times more than required concentration in fresh MHB (Sigma- Aldrich, Buchs, Switzerland) medium at pH 7.4. 100 μL of prepared bacteria solution in MHB and 100 μL of samples in MHB were mixed in a 96-well microtiter plate (TPP, untreated, Corning Incorporated, Kennebunk, USA). Untreated bacteria at 1 × 10^6 CFU/mL were used as a growth control. 96-well microtiter plates were incubated in 37 °C with shaking (180 rpm). Surviving bacteria were quantified at 0, 0.5, 1, 2, 4 and 6 h by plating 10 -fold dilutions of the sample in sterilized normal saline on LB agar plates. LB agar plates were incubated at 37 °C for 10 h, and the number of individual colonies was counted at each time point. The assay was performed in triplicate in a biosafety level 2 lab. […]

E. coli W3110 = experiment: Time-killing kinetic assay, E. coli; assay type: cell-based, Escherichia coli; settings: 8× MIC, full MHB pH 7.4, 0-6 h, n = 6
Method: as §5, §6

Compound	MIC P. aeruginosa PA14 4.13 (phoQ), 12.5% MHB [1]	MIC P. aeruginosa PA14 4.13 (phoQ), full MHB [1]	MIC P. aeruginosa PA14 4.13 ([1]; 12.5% MH pH 7.4)	MIC P. aeruginosa PA14 4.13 ([1]; full MH pH 7.4)	MIC E. coli BW25113 WT, 12.5% MH (E. coli BW25113 WT)	MIC E. coli BW25113 WT, Full MH (E. coli BW25113 WT)	MIC E. coli BW25113 SbmA-, 12.5% MH [2]	MIC E. coli BW25113 SbmA-, Full MH [2]	Protection of U2506 of 23S rRNA from CMCT modification (band at C2507) [3]	Killing profile against K. pneumoniae (K. pneumoniae NCTC418)	Killing profile against E. coli (E. coli W3110)
CC[C@@H](C)[C@@H](NC(=O)[C@@H](CCCNC(=N)N)NC(=O)[C@@H](CCCNC(=N)N)NC(=O)[C@H]1CCCN1C(=O)[C@H]1CCCN1C(=O)[C@@H](CCCNC(=N)N)NC(=O)[C@H]1CCCN1C(=O)[C@@H](CCCNC(=N)N)NC(=O)[C@H]1CCCN1C(=O)[C@@H](CC(C)C)NC(=O)[C@@H](Cc1ccc(O)cc1)NC(=O)[C@H]1CCCN1C(=O)[C@H]1CCCN1C(=O)[C@@H](CCCCN)NC(=O)[C@@H](CC(=O)O)NC(=O)[C@H](N)C(C)C)C(=O)N[C@H](Cc1ccc(O)cc1)C(=O)N[C@H](CC(N)=O)C(=O)N[C@H](CCCNC(=N)N)C(N)=O [D-Onc] (H-[dV][dD][dK][dP][dP][dY][dL][dP][dR][dP][dR][dP][dP][dR][dR][dI][dY][dN][dR]-NH2)	16 µg/mL (≈ 6.69 µM)	> 64 µg/mL	16 µg/mL (≈ 6.69 µM)	>64 µg/mL	16 µg/mL (≈ 6.69 µM)	> 64 µg/mL	16 µg/mL (≈ 6.69 µM)	> 64 µg/mL	–	–	–
CC[C@H](C)[C@H](NC(=O)[C@H](CCCNC(=N)N)NC(=O)[C@H](CCCNC(=N)N)NC(=O)[C@@H]1CCCN1C(=O)[C@@H]1CCCN1C(=O)[C@H](CCCNC(=N)N)NC(=O)[C@@H]1CCCN1C(=O)[C@H](CCCNC(=N)N)NC(=O)[C@@H]1CCCN1C(=O)[C@@H](CC(C)C)NC(=O)[C@H](Cc1ccc(O)cc1)NC(=O)[C@@H]1CCCN1C(=O)[C@@H]1CCCN1C(=O)[C@H](CCCCN)NC(=O)[C@H](CC(=O)O)NC(=O)[C@@H](N)C(C)C)C(=O)N[C@@H](Cc1ccc(O)cc1)C(=O)N[C@@H](CC(N)=O)C(=O)N[C@@H](CCCNC(=N)N)C(N)=O [DL7-Onc] (H-VDKPPY[dL]PRPRPPRRIYNR-NH2)	>32/>32 μg/mL	>32/>32 μg/mL	>32 µg/mL	>32 µg/mL	32 µg/mL (≈ 13.4 µM)	> 64 µg/mL	32 µg/mL (≈ 13.4 µM)	> 64 µg/mL	–	–	–
CC[C@H](C)[C@H](NC(=O)[C@@H](CCCNC(=N)N)NC(=O)[C@H](CCCNC(=N)N)NC(=O)[C@@H]1CCCN1C(=O)[C@@H]1CCCN1C(=O)[C@H](CCCNC(=N)N)NC(=O)[C@@H]1CCCN1C(=O)[C@H](CCCNC(=N)N)NC(=O)[C@@H]1CCCN1C(=O)[C@H](CC(C)C)NC(=O)[C@H](Cc1ccc(O)cc1)NC(=O)[C@@H]1CCCN1C(=O)[C@@H]1CCCN1C(=O)[C@H](CCCCN)NC(=O)[C@H](CC(=O)O)NC(=O)[C@@H](N)C(C)C)C(=O)N[C@@H](Cc1ccc(O)cc1)C(=O)N[C@@H](CC(N)=O)C(=O)N[C@H](CCCNC(=N)N)C(N)=O [Onc112, reference compound] (H-VDKPPYLPRPRPPR[dR]IYN[dR]-NH2)	16 µg/mL (≈ 6.69 µM)	> 32 µg/mL	16 µg/mL (≈ 6.69 µM)	>32 µg/mL	4 µg/mL (≈ 1.67 µM)	16 µg/mL (≈ 6.69 µM)	4 µg/mL (≈ 1.67 µM)	> 64 µg/mL	–	–	–
VDKPPYLPRPRPPRRIYNR [sr14Nterm-Onc] (VDKPPYLPRPRPPRRIYNR-NH2; also: residues 1-14 stereorandomized (1:1 L/D mixture)) [oncocin with the essential 14-residue N-terminus stereorandomized]	32 µg/mL	> 64 µg/mL	32 µg/mL	>64 µg/mL	16 µg/mL	> 64 µg/mL	16 µg/mL	> 64 µg/mL	did not protect U2506 from CMCT modification	–	–
VDKPPYLPRPRPPRRIYNR [sr8Cterm-Onc] (VDKPPYLPRPRPPRRIYNR-NH2; also: residues 12-19 stereorandomized (1:1 L/D mixture)) [oncocin with 8 C-terminal residues stereorandomized]	8 µg/mL	64 µg/mL	8 µg/mL	64 µg/mL	–	–	–	–	protected from CMCT modification	comparable kinetics to L-Onc	comparable kinetics to L-Onc
